# According to ChEMBL document CHEMBL3875210, “Synthesis, functionalization and biological activity of arylated derivatives of (+)-estrone” (Bioorg Med Chem, 2017):
# Biological target: Pancreatic triacylglycerol lipase (Sus scrofa) (UniProt P00591)
# Assay: Inhibition of porcine pancreatic lipase using p-nitrophenylbutyrate as substrate preincubated for 10 mins followed by substrate addition measured after 20 mins
# Settings: not given
row,IC50,Compound
1,25.6 µM,C[C@]12CC[C@@H]3c4cc(-c5ccccc5)c(O)c(-c5ccccc5)c4CC[C@H]3[C@@H]1CCC2=O
2,16.4 µM,COc1cc(OC)cc(-c2cc3c(cc2O)CC[C@@H]2[C@@H]3CC[C@]3(C)C(=O)CC[C@@H]23)c1
3,16.3 µM,C[C@]12CC[C@@H]3c4cc(-c5cccc(F)c5)c(O)cc4CC[C@H]3[C@@H]1CCC2=O
4,16.3 µM,C[C@]12CC[C@@H]3c4cc(-c5ccc(C(F)(F)F)cc5)c(O)cc4CC[C@H]3[C@@H]1CCC2=O
5,1.34 µM,C[C@]12CC[C@@H]3c4ccc(O)c(-c5cccc(F)c5)c4CC[C@H]3[C@@H]1CCC2=O
6,24.1 µM,Cc1cc(C)cc(-c2cc3c(c(-c4cc(C)cc(C)c4)c2O)CC[C@@H]2[C@@H]3CC[C@]3(C)C(=O)CC[C@@H]23)c1
7,1.78 µM,CC(C)(C)c1ccc(-c2c(O)ccc3c2CC[C@@H]2[C@@H]3CC[C@]3(C)C(=O)CC[C@@H]23)cc1
8,7.19 µM,C[C@]12CC[C@@H]3c4cc(-c5cccc(F)c5)c(O)c(-c5cccc(F)c5)c4CC[C@H]3[C@@H]1CCC2=O
9,12.3 µM,COc1ccc(-c2cc3c(cc2O)CC[C@@H]2[C@@H]3CC[C@]3(C)C(=O)CC[C@@H]23)cc1
10,0.82 µM,C[C@]12CC[C@@H]3c4ccc(O)c(-c5ccc(C(F)(F)F)cc5)c4CC[C@H]3[C@@H]1CCC2=O
11,6.42 µM,C[C@]12CC[C@@H]3c4ccc(O)c(-c5ccc(OC(F)(F)F)cc5)c4CC[C@H]3[C@@H]1CCC2=O
12,1.21 µM,C[C@]12CC[C@@H]3c4cc(-c5ccc(OC(F)(F)F)cc5)c(O)c(-c5ccc(OC(F)(F)F)cc5)c4CC[C@H]3[C@@H]1CCC2=O
13,8.29 µM,CC(C)(C)c1ccc(-c2cc3c(c(-c4ccc(C(C)(C)C)cc4)c2O)CC[C@@H]2[C@@H]3CC[C@]3(C)C(=O)CC[C@@H]23)cc1
14,1.36 µM,C[C@]12CC[C@@H]3c4ccc5oc(=O)c6ccccc6c5c4CC[C@H]3[C@@H]1CCC2=O
15,1.75 µM,C[C@]12CC[C@@H]3c4cc(-c5ccc(Cl)cc5)c(O)c(-c5ccc(Cl)cc5)c4CC[C@H]3[C@@H]1CCC2=O
16,1.21 µM,Cc1ccc(-c2cc3c(cc2O)CC[C@@H]2[C@@H]3CC[C@]3(C)C(=O)CC[C@@H]23)cc1
17,2.54 µM,C[C@]12CC[C@@H]3c4cc(-c5ccc(OC(F)(F)F)cc5)c(O)cc4CC[C@H]3[C@@H]1CCC2=O
18,13.6 µM,CCc1ccc(-c2c(O)ccc3c2CC[C@@H]2[C@@H]3CC[C@]3(C)C(=O)CC[C@@H]23)cc1
19,59.7 µM,COc1cc(OC)cc(-c2c(O)ccc3c2CC[C@@H]2[C@@H]3CC[C@]3(C)C(=O)CC[C@@H]23)c1
20,0.93 µM,C[C@]12CC[C@@H]3c4cc(-c5ccccc5F)c5oc6ccccc6c5c4CC[C@H]3[C@@H]1CCC2=O
21,5.28 µM,COc1ccc(-c2cc3c(c(-c4ccc(OC)cc4)c2O)CC[C@@H]2[C@@H]3CC[C@]3(C)C(=O)CC[C@@H]23)cc1
22,0.82 µM,C[C@]12CC[C@@H]3c4cc(-c5ccc(F)cc5)c(O)c(-c5ccc(F)cc5)c4CC[C@H]3[C@@H]1CCC2=O

row,Compound,IC50
1,C[C@]12CC[C@@H]3c4ccc(O)c(-c5ccccc5)c4CC[C@H]3[C@@H]1CCC2=O,1.54 µM
2,CC(C)(C)c1ccc(-c2cc3c(cc2O)CC[C@@H]2[C@@H]3CC[C@]3(C)C(=O)CC[C@@H]23)cc1,5.66 µM

# System: pancreatic lipase (Sus scrofa)
# Assay: Inhibition of pancreatic lipase (unknown origin) at 100 uM using p-nitrophenylbutyrate as substrate preincubated for 10 mins followed by substrate addition measured after 20 mins
# Settings: not given
row,inhibition,Compound
1,39%,Cc1ccc(-c2cc3c(c(-c4ccc(C)cc4)c2O)CC[C@@H]2[C@@H]3CC[C@]3(C)C(=O)CC[C@@H]23)cc1
2,37%,COc1ccc(-c2cc3c(c(-c4ccc(OC)c(OC)c4OC)c2O)CC[C@@H]2[C@@H]3CC[C@]3(C)C(=O)CC[C@@H]23)c(OC)c1OC
3,41%,CCc1ccc(-c2cc3c(c(-c4ccc(CC)cc4)c2O)CC[C@@H]2[C@@H]3CC[C@]3(C)C(=O)CC[C@@H]23)cc1
4,32%,C[C@]12CC[C@@H]3c4ccc5oc6ccccc6c5c4CC[C@H]3[C@@H]1CCC2=O
5,42%,COc1ccc(-c2c(O)ccc3c2CC[C@@H]2[C@@H]3CC[C@]3(C)C(=O)CC[C@@H]23)cc1
6,43%,COc1ccc(-c2c(O)ccc3c2CC[C@@H]2[C@@H]3CC[C@]3(C)C(=O)CC[C@@H]23)c(OC)c1OC
7,45%,C[C@]12CC[C@@H]3c4ccc(O)c(-c5ccc(Cl)cc5)c4CC[C@H]3[C@@H]1CCC2=O
8,43%,C[C@]12CC[C@@H]3c4cc(-c5ccccc5F)c(O)c(-c5ccccc5F)c4CC[C@H]3[C@@H]1CCC2=O
9,42%,C[C@]12CC[C@@H]3c4cc(-c5ccc(C(F)(F)F)cc5)c(O)c(-c5ccc(C(F)(F)F)cc5)c4CC[C@H]3[C@@H]1CCC2=O
10,38%,Cc1ccc(-c2c(O)ccc3c2CC[C@@H]2[C@@H]3CC[C@]3(C)C(=O)CC[C@@H]23)cc1

row,Compound,inhibition
1,C[C@]12CC[C@@H]3c4cc(-c5ccccc5)c(O)cc4CC[C@H]3[C@@H]1CCC2=O,39%

# Biological target: not listed separately
# Assay: Inhibition of pancreatic lipase (unknown origin) assessed as decrease in release of fatty acid from triolein incubated for 30 mins by phenolphthalein-baed titrimetric method
# Design: species or system Homo sapiens
# Settings: not given
row,Compound,IC50
1,CC(C)c1cc2c(c(O)c1O)[C@@]1(C(=O)O)CCCC(C)(C)[C@@H]1CC2 [CARNOSIC ACID],12 µg/mL

# Same assay, conditions: read-out: IC50
row,IC50,Compound
1,41.8 µM,Cc1cc2c(c(O)c1-c1c(C)cc3c(c1O)C(=O)c1c(O)cc(O)cc1C3=O)C(=O)c1c(O)cccc1C2=O [CASSIAMIN A]
2,> 20 µM,Oc1cc(O)c2c(c1)O[C@H](c1ccc(O)c(O)c1)[C@H](O)C2 [(-)-EPICATECHIN]
3,15.8 µM,C[C@H]1[C@H](C)CC[C@]2(C(=O)O)CC[C@]3(C)C(=CC[C@@H]4[C@@]5(C)CC[C@H](O)C(C)(C)[C@@H]5CC[C@]43C)[C@H]12 [URSOLIC ACID]
